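Compound exposure: 48 hours, 5 concentrations, 96-well plates. GI50 = concentration required for 50% inhibition of growth.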 Active and inactive are the calls of the source. Cut-off read from the data, not from the text of the source: active = GI50 up to about 1.1 µM and inactive = higher.
Legend:
Assay in all cases: NCI-60 cell line screen, 48 h
IGROV-1 = system: IGROV-1
MDA-MB-231 = system: MDA-MB-231
HT-29 = system: HT-29
SW-620 = system: SW-620
OVCAR-4 = system: OVCAR-4
CAKI-1 = system: CAKI-1
SNB-19 = system: SNB-19
SNB-75 = system: SNB-75
A549 = system: A549
EKVX = system: EKVX
SF-539 = system: SF-539
KM12 = system: KM12
UACC-62 = system: UACC-62
U-251 = system: U-251
SF-268 = system: SF-268
UACC-257 = system: UACC-257
M14 = system: M14
HL-60 = system: HL-60
SK-MEL-28 = system: SK-MEL-28

Structure (SMILES) | GI50 (IGROV-1) | GI50 (MDA-MB-231) | GI50 (HT-29) | GI50 (SW-620) | GI50 (OVCAR-4) | GI50 (CAKI-1) | GI50 (SNB-19) | GI50 (SNB-75) | GI50 (A549) | GI50 (EKVX) | GI50 (SF-539) | GI50 (KM12) | GI50 (UACC-62) | GI50 (U-251) | GI50 (SF-268) | GI50 (UACC-257) | GI50 (M14) | GI50 (HL-60) | GI50 (SK-MEL-28)
O=NN(Cc1ccc(Cl)cc1)C(C(=O)O)c1ccccc1 (configuration not stated) | > 100 µM (inactive) | > 100 µM (inactive) | > 100 µM (inactive) | > 100 µM (inactive) | > 100 µM (inactive) | > 100 µM (inactive) | > 100 µM (inactive) | > 100 µM (inactive) | > 100 µM (inactive) | > 100 µM (inactive) | > 100 µM (inactive) | > 100 µM (inactive) | > 100 µM (inactive) | > 100 µM (inactive) | > 100 µM (inactive) | 47.2 µM (inactive) | > 100 µM (inactive) | > 100 µM (inactive) | > 100 µM (inactive)
CNC(=S)c1nnsc1N | 2.99 µM (inactive) | > 100 µM (inactive) | – | > 100 µM (inactive) | > 100 µM (inactive) | > 100 µM (inactive) | – | > 100 µM (inactive) | > 100 µM (inactive) | > 100 µM (inactive) | > 100 µM (inactive) | 11.6 µM (inactive) | > 100 µM (inactive) | > 100 µM (inactive) | > 100 µM (inactive) | > 100 µM (inactive) | > 100 µM (inactive) | 0.0115 µM (active) | > 100 µM (inactive)
CCOC(=O)C(Cc1ccc2c(c1)CCC2)(Cc1ccc2c(c1)CCC2)C(=O)OCC | > 100 µM (inactive) | 47.1 µM (inactive) | 30.5 µM (inactive) | > 100 µM (inactive) | > 100 µM (inactive) | > 100 µM (inactive) | > 100 µM (inactive) | > 100 µM (inactive) | 47.5 µM (inactive) | 17.4 µM (inactive) | 81.7 µM (inactive) | – | – | > 100 µM (inactive) | 56.9 µM (inactive) | 34.7 µM (inactive) | 96.2 µM (inactive) | 31.5 µM (inactive) | 51.5 µM (inactive)
C[C@]12CC[C@@H]3c4cc(Br)c(O)c(Br)c4CC[C@H]3[C@@H]1CC(Br)C2=O (some centres not stated) | 9.23 µM (inactive) | 6.62 µM (inactive) | 3.26 µM (inactive) | 3.36 µM (inactive) | 5.97 µM (inactive) | 3.7 µM (inactive) | – | 12.1 µM (inactive) | 17.4 µM (inactive) | 13.2 µM (inactive) | 7.52 µM (inactive) | 3.57 µM (inactive) | 3.59 µM (inactive) | 3.3 µM (inactive) | 5.68 µM (inactive) | 15.8 µM (inactive) | 7.03 µM (inactive) | 2.59 µM (inactive) | 7.28 µM (inactive)
O=C(c1cc(Cl)cc(Cl)c1)N(Cc1cccnc1)C(=S)N(Cc1cccnc1)C(=O)c1cc(Cl)cc(Cl)c1 | – | 26.5 µM (inactive) | 31.9 µM (inactive) | 27.9 µM (inactive) | 27.3 µM (inactive) | 41.3 µM (inactive) | 52.6 µM (inactive) | 92.7 µM (inactive) | > 100 µM (inactive) | 87.1 µM (inactive) | 23.4 µM (inactive) | 24.5 µM (inactive) | 45.7 µM (inactive) | 22.2 µM (inactive) | 41.3 µM (inactive) | 33 µM (inactive) | 26.4 µM (inactive) | 25.3 µM (inactive) | 97.3 µM (inactive)
Clc1ccc(-c2cc(-c3nc4ccccc4[nH]3)no2)cc1 | 22.6 µM (inactive) | 18.6 µM (inactive) | 18.2 µM (inactive) | 22.4 µM (inactive) | 17.7 µM (inactive) | 18.3 µM (inactive) | 19.6 µM (inactive) | 18.3 µM (inactive) | 19.1 µM (inactive) | 16.9 µM (inactive) | 23.9 µM (inactive) | 20.8 µM (inactive) | 14.6 µM (inactive) | – | 21.3 µM (inactive) | 18.8 µM (inactive) | 18.4 µM (inactive) | 7.4 µM (inactive) | 19.3 µM (inactive)
CC1OC(OC2C(CO)OC(O[C@H]3CC[C@@]4(C)C(=CC[C@H]5[C@@H]6C[C@@H]7O[C@](O)(CC[C@@H](C)COC8OC(CO)C(O)C(O)C8O)[C@@H](C)[C@@H]7[C@@]6(C)CC[C@@H]54)C3)C(OC3OC(C)C(O)C(O)C3O)C2O)C(O)C(O)C1O (some centres not stated) | – | 6.11 µM (inactive) | 1.98 µM (inactive) | 1.45 µM (inactive) | 6.73 µM (inactive) | 2.47 µM (inactive) | 2.23 µM (inactive) | 1.48 µM (inactive) | 1.57 µM (inactive) | 9.38 µM (inactive) | 1.95 µM (inactive) | 2.24 µM (inactive) | 2.52 µM (inactive) | 1.87 µM (inactive) | 3.23 µM (inactive) | 4.02 µM (inactive) | 1.91 µM (inactive) | 2.13 µM (inactive) | 2.46 µM (inactive)
O=C1c2ccccc2C(=O)c2c(NCC(O)CO)ccc(NCC(O)CO)c21 (configuration not stated) | 49.4 µM (inactive) | 97.9 µM (inactive) | 56.6 µM (inactive) | 45.9 µM (inactive) | > 100 µM (inactive) | 56.6 µM (inactive) | 43.2 µM (inactive) | 56.4 µM (inactive) | > 100 µM (inactive) | > 100 µM (inactive) | 62.1 µM (inactive) | – | 51.5 µM (inactive) | 61.2 µM (inactive) | 89.1 µM (inactive) | > 100 µM (inactive) | – | 63 µM (inactive) | > 100 µM (inactive)

Source: ChEMBL document CHEMBL1201862, “PubChem BioAssay data set” (2004)
